Laboratory results as given in paper PMC9609996, “SAR Study and Molecular Mechanism Investigation of Novel Naphthoquinone-furan-2-cyanoacryloyl Hybrids with Antitumor Activity” (Pharmaceutics, 2022).

Key:
recombinant STAT3 = recombinant STAT3 (Homo sapiens, UniProt P40763); test: Biolayer interferometry (BLI) assay; settings: 5c 7.81 to 250 μM, 25 °C, read-out: binding affinity (KD)
Experimental: To confirm that compound 5c is a direct STAT3 inhibitor, a BLI (Biolayer interferometry) analysis was performed. Briefly, recombinant STAT3 with a His-tag was immobilized on SSA biosensors, and the dissociation constants were determined by measuring the binding to serial dilutions of 5c at concentrations ranging from 7.81 to 250 μM (Figure 10A). The signal was collected, and the kinetic affinity was calculated by the software. The steady-state curve reaches saturation (Figure 10B).
Purified recombinant STAT3 proteins were biotinylated using the EZ-Link biotinylation reagent (Thermo Fisher Scientific). Briefly, the protein and biotinylation reagent were mixed with a 1:1 molar ratio in PBS at 4 °C. Low biotinylation reagent concentration was applied to avoid protein over-biotinylation. These reaction mixtures were incubated at room temperature for 30 min to allow for the completion of the reaction. Reaction mixture was then dialyzed using 10K MWCO dialysis cassettes (Thermo Fisher Scientific) to remove unreacted biotinylation reagent.
BLI experiments were performed using an OctetRED96 instrument from ForteBio. All assays were run at 25 °C with continuous 1000 RPM shaking. […] The resulting data were analyzed based on a 1:1 binding model from which the kon and koff values were obtained. After, the KD values were calculated.

L02 cells = test: CCK-8 assay on normal cells, L02; format: cell-based; settings: L02 human normal hepatocytes, 48 h, mean ± SD
Experimental: (§1) Human cervical cancer HeLa, human prostate cancer PC3, human colonic carcinoma HCT116, human lung carcinoma A549, human breast cancer MDA-MB-231, mouse melanoma B16, human ovarian cancer SKOV3, human hepatoma Hep3B, and human liver L02 cells were purchased from the Cell Bank of Shanghai Institute of Biochemistry and Cell Biology, Chinese Academy of Sciences (Shanghai, China). The HeLa, A549, B16, PC3, MDA-MB-231, HCT116, and L02 cells were cultured in Dulbecco’s modified Eagle medium (DMEM, Gibco Inc.; Gaithersburg, MD, USA). All cultures were supplied with 10% fetal bovine serum (FBS; YHSM, Beijing, China), 100 IU/mL of penicillin, and 100 μg/mL of streptomycin, and cells were incubated at 37 °C in an atmosphere of 5% CO2.
(§2) A CCK-8 kit (MCE, USA) was used to perform a CCK-8 assay. Cells were plated and grown in the 96-well plates for the indicated period (48 h) in the incubator, followed by an incubation with the CCK-8 solutions for 1–4 h. Subsequently, the absorbance (450 nm) was measured by a microplate reader. The median inhibitory concentration (IC50) was determined from the dose–response curve. Experiments were performed in a triplicate.

HeLa cells = test: Colony formation assay; format: cell-based, human; settings: treated 24 h, cultured two weeks
Experimental: HeLa cells were cultured at 1 × 10^3 cells per well in a 6-well plate with a regular growth medium for 12 h. After the cells were fixed on the wall, they were treated with different concentrations of compound 5c or 0.1% DMSO for 24 h. Then, the cells were cultured in a fresh medium for two weeks until the colonies were visible. A crystal violet staining solution (Beyotime, Shanghai, China) was used to stain the colonies for 30 min, and the result was recorded by a smartphone. The colonies were defined as >50 cells/colony.

HeLa = test: CCK-8 anti-proliferation assay, HeLa; format: cell-based, human; settings: Homo sapiens, mean ± SD
Experimental: as §1, §2

PC3 = test: CCK-8 anti-proliferation assay, PC3; format: cell-based, human; settings: mean ± SD; for IC50: 48 h
Experimental: as §1, §2

[1] = test system: four cancer cell lines (HeLa, PC3, A549, and HCT116); test: CCK-8 inhibition rates over four cancer cell lines; format: cell-based; settings: Homo sapiens, HeLa, PC3, A549, HCT116, CCK-8, read-out: inhibition rate, span over the four cancer cell lines
Experimental: First, the inhibition rates at 20 μM for all newly synthesized compounds were evaluated on four cancer cell lines (HeLa, PC3, A549, and HCT116) by a CCK-8 assay. […] A variety of aliphatic amine substituents were well tolerated (4e, 4f, 5c, and 8f).
as §1, §2

A549 = test: CCK-8 anti-proliferation assay, A549; format: cell-based, human; settings: mean ± SD; for IC50: 48 h
Experimental: as §1, §2

Bax in HeLa cells = test: Western blot, Bax; format: cell-based, human; settings: 6–12 μM, 24 h
Experimental: Protein levels were determined by the standard Western blot assay. HeLa cells were incubated with different concentrations of compound 5c or 0.1% DMSO for 24 h. Cells harvested with trypsin were treated with 1× RIPA lysis buffer (50 mM Tris-HCl, pH 7.4, 150 mM NaCl, 0.25% deoxycholic acid, 1% NP-40, 1 mM ethylenediaminetetraacetate (EDTA), and protease inhibitor PMSF (Solarbio, Beijing, China) to extract the total proteins. Then, an aliquot of proteins from the total cell lysates (4–40 μg/lane) was separated using sodium dodecyl sulfate (8, 10, or 12%) polyacrylamide gel electrophoresis (BioRad Laboratories, Hercules, CA, USA). The aliquot was wet-transferred to a PVDF membrane (BioRad Laboratories, Hercules, CA, USA), blotted with primary antibodies (purchased from Cell Signaling Technology, Danvers, MA, USA) specific for the STAT3 (#12640), p-STAT3 (#9145), AKT (#4691), p-AKT (#4060), Bax (#5023), Bcl-xl (#2764), secondary isotype-specific antibodies (#7074) and glyceraldehyde-3-phosphate dehydro-genase (GAPDH, #2118) as the internal standard overnight; then, they were probed with secondary isotype-specific antibodies for another 2 h at 37 °C. The bound immuno-complexes were detected using a ChemiDOC XRS+ system (BioRad Laboratories, Hercules, CA, USA).

recombinant STAT3, sequence (P40763 whole entry): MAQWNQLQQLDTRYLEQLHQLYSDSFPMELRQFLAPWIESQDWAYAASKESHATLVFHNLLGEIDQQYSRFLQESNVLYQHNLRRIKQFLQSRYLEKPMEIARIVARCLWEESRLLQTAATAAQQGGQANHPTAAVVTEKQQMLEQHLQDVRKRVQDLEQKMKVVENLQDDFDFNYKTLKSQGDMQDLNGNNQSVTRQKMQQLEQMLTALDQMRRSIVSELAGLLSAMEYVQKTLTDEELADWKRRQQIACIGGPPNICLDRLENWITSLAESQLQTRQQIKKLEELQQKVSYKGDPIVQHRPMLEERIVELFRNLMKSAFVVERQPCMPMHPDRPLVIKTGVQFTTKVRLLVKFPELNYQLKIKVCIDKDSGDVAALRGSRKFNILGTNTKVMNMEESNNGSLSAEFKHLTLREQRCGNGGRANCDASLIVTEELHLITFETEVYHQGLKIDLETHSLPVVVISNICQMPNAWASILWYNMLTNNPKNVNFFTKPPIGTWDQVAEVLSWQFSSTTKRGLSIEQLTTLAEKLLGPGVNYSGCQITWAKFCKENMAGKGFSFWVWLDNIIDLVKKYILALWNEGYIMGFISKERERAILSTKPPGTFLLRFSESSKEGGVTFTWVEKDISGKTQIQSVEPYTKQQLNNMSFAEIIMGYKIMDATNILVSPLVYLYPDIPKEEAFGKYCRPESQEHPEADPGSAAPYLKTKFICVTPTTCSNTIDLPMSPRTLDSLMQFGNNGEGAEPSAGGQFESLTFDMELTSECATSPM

N#C/C(=C\c1ccc(C2=CC(=O)c3ccccc3C2=O)o1)C(=O)NCCN1CCOCC1 [Compound 5c, (E)-2-cyano-3-(5-(1,4-dioxo-1,4-dihydronaphthalen-2-yl)furan-2-yl)-N-(2-morpholinoethyl)acrylamide]
Kd (recombinant STAT3): 13 µM | IC50 (L02 cells): 51.7 ± 0.1 µM | colony forming ability of HeLa cells (HeLa cells): significantly inhibited | inhibition at 20 µM (HeLa; 20 μM, read-out: Inhibition Rate (%) at 20 μM HeLa): 75.78 ± 0.05% | IC50 (HeLa; 48 h): 3.1 ± 0.02 µM | IC50 (PC3): 20.5 ± 0.05 µM | inhibition at 20 µM (PC3; Homo sapiens, PC-3, 20 μM, read-out: Inhibition Rate (%) at 20 μM PC3): 25.54 ± 0.06% | IC50 (PC3; Homo sapiens, PC-3, 48 h): > 20.5 µM | inhibition at 20 µM [1]: 24.7 to 75.8% | IC50 (A549): 35.27 ± 0.07 µM | inhibition at 20 µM (A549; Homo sapiens, A549, 20 μM, read-out: Inhibition Rate (%) at 20 μM A549): 24.69 ± 0.04% | IC50 (A549; Homo sapiens, A549, 48 h): > 20.5 µM | levels of Bax (Bax in HeLa cells): increased
